From patent US6241963A, “Dopamine and serotonin transporter ligands and imaging agents” (priority 1996, dated 2001)
Values joined by “and” are separate entries in the source; they are usually repeats but may differ in a detail not shown here. Equal entries are not always repeated. “Also recorded” adds a separate entry of the source.

Key:
dopamine transporter = assay: Blocking studies in rats (pretreatment or co-injection with competing agent); assay type: in vivo, Male Sprague-Dawley rats; settings: for ST/CB ratio after pretreatment with haldol (haloperidol) / ST/CB ratio after pretreatment with β-CIT (RTI-55): 60 min, pretreated 1 mg/kg iv, 5 min before tracer; for ST/CB ratio, control rats of blocking study: 60 min post-injection, no pretreatment
Protocol: (§1) Regional brain distribution in rats was obtained after an injection of 1.19a, 1.19b, 1.20a, 1.20b or 1.21. Samples from different brain regions (cortex, striatum, hippocampus, and cerebellum) were dissected, weighed and counted, and the percentage dose per gram of sample was calculated by comparing the sample counts with the count of the diluted initial dose. The uptake ratio of each region was obtained by dividing the percentage dose per gram of that region by that of the cerebellum. For blocking studies, rats were injected with either β-CIT or haloperidol (iv, 1 mg/Kg) 5 min prior to injection of 1.19a. The rats were dissected and brain tissue samples were counted as described above. The specific uptake of the compound was expressed as ratio of ST/CB (% dose/g of striatum divided by the same of cerebellum).
as §1, with “3.24 to 3.34.” for “1.19a, 1.19b, 1.20a, 1.20b or 1.21.”, “3.25.” for “1.19a.”, “above.” for “above. The specific uptake of the compound was expressed as ratio of ST/CB (% dose/g of striatum divided by the same of cerebellum).”

dopamine transporters [1] = assay: SPECT imaging in a baboon, co-registered with MRI; assay type: in vivo; settings: 60-90 min post iv injection of 9 mCi
Protocol: A baboon (~15 kg) was the subject of a SPECT imaging study. Prior to imaging, the animal was fasted, immobilized with ketamine (10-20 mg/kg, i.m.) and xylazine (2-3 mg/kg, i.m.), intubated and maintained on a 1.5-2.0% isofluorane/98.5% oxygen mixture (flow rate of 200-500 cc/min). […] Body temperature was maintained using a hot water circulating heating pad and was monitored with a rectal thermometer. The animal's head was immobilized using a vacuum-packed bean-bag device that hardens upon evacuation when molded around the head. No-carrier-added [^99m Tc]TRODAT-1 (1.19a; 9 mCi) was administered as an intravenous bolus in the saphenous vein of the baboon. Immediately after injection, sequential 5 minute per frame dynamic SPECT scans were acquired on a triple-headed Picker Prism 3000 camera (FWHM: 7 mm) equipped with fan beam collimators for 2 hours. The acquisition parameters were a 20% energy window at 140 KeV, 120 projection angles over 360 degrees, a 128×128 matrix, and a zoom factor of 1.78 in a slice thickness of 2 mm. The projection data was reconstructed with a count dependent 3-D Wiener filter. Chang's first order correction method was used to compensate for attenuation. Magnetic resonance images (MRI) of the baboon brain were acquired with a 1.5 Tesla machine (GE Medical Systems, Milwaukee, Wis.). […]

[2] = rat, cited from earlier work
dopamine transporters [3] = molecular target: dopamine transporters (Rattus norvegicus, UniProt P23977); assay: In vitro autoradiography of rat brain sections; assay type: binding, Male Sprague-Dawley rats; settings: rat brain coronal sections
Chain of dopamine transporters (Rattus norvegicus, UniProt P23977) (P23977 whole entry): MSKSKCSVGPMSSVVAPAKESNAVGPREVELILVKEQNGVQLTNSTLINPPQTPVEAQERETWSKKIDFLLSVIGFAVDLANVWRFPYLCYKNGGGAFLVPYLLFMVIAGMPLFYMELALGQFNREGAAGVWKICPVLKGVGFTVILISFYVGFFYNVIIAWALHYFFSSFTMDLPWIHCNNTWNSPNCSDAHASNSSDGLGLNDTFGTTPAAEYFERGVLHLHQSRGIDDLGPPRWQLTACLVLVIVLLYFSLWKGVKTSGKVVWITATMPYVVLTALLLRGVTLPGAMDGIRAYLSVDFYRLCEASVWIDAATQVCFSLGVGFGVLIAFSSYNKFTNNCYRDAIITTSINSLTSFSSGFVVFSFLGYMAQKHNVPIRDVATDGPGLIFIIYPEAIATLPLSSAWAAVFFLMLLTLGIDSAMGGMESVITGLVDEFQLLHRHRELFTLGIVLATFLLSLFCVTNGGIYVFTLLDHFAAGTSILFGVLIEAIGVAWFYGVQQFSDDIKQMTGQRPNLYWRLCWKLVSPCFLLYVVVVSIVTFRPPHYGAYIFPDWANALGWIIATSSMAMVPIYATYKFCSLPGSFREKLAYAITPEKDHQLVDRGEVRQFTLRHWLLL
Protocol: Male Sprague-Dawley rats ([…]) were sacrificed by decapitation, and the brains were removed, placed in OTC embedding medium (Miles Laboratory, Elkhart, Ind.) frozen in powdered dry ice. After equilibration to -15° C., 20 μm coronal sections were sliced on a cryostat (Hacker Instruments, Fairfield, N.J.), thaw mounted onto gelatin-coated slides, desiccated at 4° C. for 3 hours and kept at -70° C. until use. Prior to the experiment, the slides were dried at room temperature and preincubated for 30 minutes in buffer containing 50 mM Tris-HCl (pH 7.4, 120 mM NaCl). The slides were then incubated for 2 hours in preincubation buffer and the [^99m Tc] compound 3.25 (385,000 cpm/200 μL) in a coplan jar, washed for 1 hour in cold Tris buffer, with one change of buffer, dipped in ice-cold water to remove buffer salts and allowed to dry at room temperature. Nonspecific binding was determined in the presence of 1 μM IPT. These slides were simultaneously exposed to DuPont x-ray film in an autoradiographic cassette for 18 hours. The exposed film was developed with a Kodak automatic film processor.

Row | Compound | ST/CB ratio after pretreatment with haldol (haloperidol) (dopamine transporter) | ST/CB ratio after pretreatment with β-CIT (RTI-55) (dopamine transporter) | ST/CB ratio, control rats of blocking study (dopamine transporter) | SPECT localization in brain (dopamine transporters [1]) | Initial brain uptake at 2 minutes ([2]; 2 min post iv injection (Meegalla 1995)) | ST/CB ratio at 60 minutes ([2]; 60 min after iv injection (Meegalla 1995)) | Autoradiographic regional labeling (dopamine transporters [3])
1 | CN1[C@H]2CC[C@@H]1[C@@H](C[N+]13CC[S][99Tc-]14(=[O])[S]CC[N]4CC3)[C@@H](c1ccc(Cl)cc1)C2 (stereo partly shown) [Compound 1.19a] | 2.6 | 1.0 | 2.66 and 2.6 | excellent consistence with the expected localization of this agent in caudate and putamen areas; also recorded: A high accumulation | – | – | –
2 | COC(=O)C1C(c2ccc(Cl)cc2)CC2CCC1N2CC[S][99Tc-]12(=[O])[S]CC[N+]1(C)CC[S]2 [Compound 3.25, [^99m Tc] technetium, [methyl 3-(4-chlorophenyl)-8-(2-mercaptoethyl)-8-azabicyclo [3.2.1]octane-2-carboxylato-S][[2,2'-(methylimino)bis[ethanethiolato]](2-)-N,S,S']oxo] | 2.6 | 1.0 | 2.6 | – | 0.1% | 3.50 | elevated labeling in striatum, major islands of Calleja and olfactory tubercle regions; also recorded: intense labeling in caudate putamen and olfactory tubercle; also recorded: localized in caudate putamen and olfactory tubercle
